{"source": "PubChem BioAssay AID2060613", "about": "(Molecular Pharmacology Branch, DTP, NCI, 2025)", "system": "233499-124-R-J3-PDC complex spheroid viability", "experiment": "Anticancer human tumor 233499-124-R-J3-PDC patient-derived colon adenocarcinoma cell line growth inhibition [CLK]", "conditions": "for IC50: curve of first compound; for viability, T/C: stronger effect = lower value", "outline": "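Multi-cell-type spheroids combined patient-derived tumor cells with HUVEC endothelial cells and human mesenchymal stem cells. Paired agents were dosed in half-log steps down from about clinical Cmax, or from 10 microM where Cmax was unknown.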", "data": [{"compound": "CC(C)CC(NC(=O)C(Cc1ccccc1)NC(=O)c1cnccn1)B(O)O", "note": "(centres undefined) + CN1CCN(c2cc(C(=O)Nc3cc4cc(-c5cnn(C)c5)ccc4cn3)ccn2)CC1;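 also: spheroids exposed to the drug combinations for seven days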;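 as to viability, T/C: percent viability relative to DMSO vehicle control wells taken as 100%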", "values": [{"measurement": "IC50", "setting": "second compound 0.0316 µM", "result": 5.53, "unit": "nM"}, {"measurement": "IC50", "setting": "second compound 0.1 µM", "result": 5.01, "unit": "nM"}, {"measurement": "IC50", "setting": "second compound 0.316 µM", "result": 5.27, "unit": "nM"}, {"measurement": "IC50", "setting": "second compound 1 µM", "result": "< 0.949", "unit": "nM"}, {"measurement": "IC50", "setting": "second compound 3.16 µM", "result": "< 0.949", "unit": "nM"}, {"measurement": "IC50", "setting": "second compound 10 µM", "result": "< 0.949", "unit": "nM"}, {"measurement": "viability, T/C", "setting": "second compound 0.0316 µM, first compound 0.000949 µM", "result": 97.8, "unit": "%"}, {"measurement": "viability, T/C", "setting": "second compound 0.0316 µM, first compound 0.003 µM", "result": 113, "unit": "%"}, {"measurement": "viability, T/C", "setting": "second compound 0.0316 µM, first compound 0.00949 µM", "result": 0.79, "unit": "%"}, {"measurement": "viability, T/C", "setting": "second compound 0.0316 µM, first compound 0.03 µM", "result": 0.19, "unit": "%"}, {"measurement": "viability, T/C", "setting": "second compound 0.0316 µM, first compound 0.0949 µM", "result": 0.17, "unit": "%"}, {"measurement": "viability, T/C", "setting": "second compound 0.0316 µM, first compound 0.3 µM", "result": 0.17, "unit": "%"}, {"measurement": "viability, T/C", "setting": "second compound 0.1 µM, first compound 0.000949 µM", "result": 86.1, "unit": "%"}, {"measurement": "viability, T/C", "setting": "second compound 0.1 µM, first compound 0.003 µM", "result": 93.5, "unit": "%"}, {"measurement": "viability, T/C", "setting": "second compound 0.1 µM, first compound 0.00949 µM", "result": 0.23, "unit": "%"}, {"measurement": "viability, T/C", "setting": "second compound 0.1 µM, first compound 0.03 µM", "result": 0.2, "unit": "%"}, {"measurement": "viability, T/C", "setting": "second compound 0.1 µM, first compound 0.0949 µM", "result": 0.18, "unit": "%"}, {"measurement": "viability, T/C", "setting": "second compound 0.1 µM, first compound 0.3 µM", "result": 0.17, "unit": "%"}, {"measurement": "viability, T/C", "setting": "second compound 0.316 µM, first compound 0.000949 µM", "result": 96.5, "unit": "%"}, {"measurement": "viability, T/C", "setting": "second compound 0.316 µM, first compound 0.003 µM", "result": 99, "unit": "%"}, {"measurement": "viability, T/C", "setting": "second compound 0.316 µM, first compound 0.00949 µM", "result": 0.2, "unit": "%"}, {"measurement": "viability, T/C", "setting": "second compound 0.316 µM, first compound 0.03 µM", "result": 0.17, "unit": "%"}, {"measurement": "viability, T/C", "setting": "second compound 0.316 µM, first compound 0.0949 µM", "result": 0.18, "unit": "%"}, {"measurement": "viability, T/C", "setting": "second compound 0.316 µM, first compound 0.3 µM", "result": 0.17, "unit": "%"}, {"measurement": "viability, T/C", "setting": "second compound 1 µM, first compound 0.000949 µM", "result": 1.6, "unit": "%"}, {"measurement": "viability, T/C", "setting": "second compound 1 µM, first compound 0.003 µM", "result": 0.82, "unit": "%"}, {"measurement": "viability, T/C", "setting": "second compound 1 µM, first compound 0.00949 µM", "result": 0.17, "unit": "%"}, {"measurement": "viability, T/C", "setting": "second compound 1 µM, first compound 0.03 µM", "result": 0.15, "unit": "%"}, {"measurement": "viability, T/C", "setting": "second compound 1 µM, first compound 0.0949 µM", "result": 0.54, "unit": "%"}, {"measurement": "viability, T/C", "setting": "second compound 1 µM, first compound 0.3 µM", "result": 0.13, "unit": "%"}, {"measurement": "viability, T/C", "setting": "second compound 3.16 µM, first compound 0.000949 µM", "result": 0.76, "unit": "%"}, {"measurement": "viability, T/C", "setting": "second compound 3.16 µM, first compound 0.003 µM", "result": 0.84, "unit": "%"}, {"measurement": "viability, T/C", "setting": "second compound 3.16 µM, first compound 0.00949 µM", "result": 0.17, "unit": "%"}, {"measurement": "viability, T/C", "setting": "second compound 3.16 µM, first compound 0.03 µM", "result": 0.18, "unit": "%"}, {"measurement": "viability, T/C", "setting": "second compound 3.16 µM, first compound 0.0949 µM", "result": 0.19, "unit": "%"}, {"measurement": "viability, T/C", "setting": "second compound 3.16 µM, first compound 0.3 µM", "result": 0.33, "unit": "%"}, {"measurement": "viability, T/C", "setting": "second compound 10 µM, first compound 0.000949 µM", "result": 0.45, "unit": "%"}, {"measurement": "viability, T/C", "setting": "second compound 10 µM, first compound 0.003 µM", "result": 0.34, "unit": "%"}, {"measurement": "viability, T/C", "setting": "second compound 10 µM, first compound 0.00949 µM", "result": 0.24, "unit": "%"}, {"measurement": "viability, T/C", "setting": "second compound 10 µM, first compound 0.03 µM", "result": 0.24, "unit": "%"}, {"measurement": "viability, T/C", "setting": "second compound 10 µM, first compound 0.0949 µM", "result": 0.22, "unit": "%"}, {"measurement": "viability, T/C", "setting": "second compound 10 µM, first compound 0.3 µM", "result": 0.19, "unit": "%"}]}, {"compound": "CCc1c2c(nc3ccc(O)cc13)-c1cc3c(c(=O)n1C2)COC(=O)[C@]3(O)CC", "note": "+ CNC(=O)c1ccc(Nc2nc(OC3CCCC3)c3c(-c4ccc5nc(C)oc5c4)c[nH]c3n2)c(OC)c1", "values": [{"measurement": "IC50", "setting": "second compound 0.0316 µM", "result": 114, "unit": "nM"}, {"measurement": "IC50", "setting": "second compound 0.1 µM", "result": 34.5, "unit": "nM"}, {"measurement": "IC50", "setting": "second compound 0.316 µM", "result": 15.8, "unit": "nM"}, {"measurement": "IC50", "setting": "second compound 1 µM", "result": 15.2, "unit": "nM"}, {"measurement": "IC50", "setting": "second compound 3.16 µM", "result": 4.68, "unit": "nM"}, {"measurement": "IC50", "setting": "second compound 10 µM", "result": "< 3.16", "unit": "nM"}, {"measurement": "viability, T/C", "setting": "second compound 0.0316 µM, first compound 0.00316 µM", "result": 76, "unit": "%"}, {"measurement": "viability, T/C", "setting": "second compound 0.0316 µM, first compound 0.01 µM", "result": 56.8, "unit": "%"}, {"measurement": "viability, T/C", "setting": "second compound 0.0316 µM, first compound 0.0316 µM", "result": 55, "unit": "%"}, {"measurement": "viability, T/C", "setting": "second compound 0.0316 µM, first compound 0.1 µM", "result": 61.8, "unit": "%"}, {"measurement": "viability, T/C", "setting": "second compound 0.0316 µM, first compound 0.316 µM", "result": 34.7, "unit": "%"}, {"measurement": "viability, T/C", "setting": "second compound 0.0316 µM, first compound 1 µM", "result": 18.3, "unit": "%"}, {"measurement": "viability, T/C", "setting": "second compound 0.1 µM, first compound 0.00316 µM", "result": 57.5, "unit": "%"}, {"measurement": "viability, T/C", "setting": "second compound 0.1 µM, first compound 0.01 µM", "result": 53.8, "unit": "%"}, {"measurement": "viability, T/C", "setting": "second compound 0.1 µM, first compound 0.0316 µM", "result": 47.3, "unit": "%"}, {"measurement": "viability, T/C", "setting": "second compound 0.1 µM, first compound 0.1 µM", "result": 46.6, "unit": "%"}, {"measurement": "viability, T/C", "setting": "second compound 0.1 µM, first compound 0.316 µM", "result": 31.1, "unit": "%"}, {"measurement": "viability, T/C", "setting": "second compound 0.1 µM, first compound 1 µM", "result": 11.6, "unit": "%"}, {"measurement": "viability, T/C", "setting": "second compound 0.316 µM, first compound 0.00316 µM", "result": 65.5, "unit": "%"}, {"measurement": "viability, T/C", "setting": "second compound 0.316 µM, first compound 0.01 µM", "result": 50, "unit": "%"}, {"measurement": "viability, T/C", "setting": "second compound 0.316 µM, first compound 0.0316 µM", "result": 38.4, "unit": "%"}, {"measurement": "viability, T/C", "setting": "second compound 0.316 µM, first compound 0.1 µM", "result": 45.1, "unit": "%"}, {"measurement": "viability, T/C", "setting": "second compound 0.316 µM, first compound 0.316 µM", "result": 19.6, "unit": "%"}, {"measurement": "viability, T/C", "setting": "second compound 0.316 µM, first compound 1 µM", "result": 11.3, "unit": "%"}, {"measurement": "viability, T/C", "setting": "second compound 1 µM, first compound 0.00316 µM", "result": 63, "unit": "%"}, {"measurement": "viability, T/C", "setting": "second compound 1 µM, first compound 0.01 µM", "result": 49.8, "unit": "%"}, {"measurement": "viability, T/C", "setting": "second compound 1 µM, first compound 0.0316 µM", "result": 40.2, "unit": "%"}, {"measurement": "viability, T/C", "setting": "second compound 1 µM, first compound 0.1 µM", "result": 53.6, "unit": "%"}, {"measurement": "viability, T/C", "setting": "second compound 1 µM, first compound 0.316 µM", "result": 12.3, "unit": "%"}, {"measurement": "viability, T/C", "setting": "second compound 1 µM, first compound 1 µM", "result": 5.66, "unit": "%"}, {"measurement": "viability, T/C", "setting": "second compound 3.16 µM, first compound 0.00316 µM", "result": 50.9, "unit": "%"}, {"measurement": "viability, T/C", "setting": "second compound 3.16 µM, first compound 0.01 µM", "result": 48.6, "unit": "%"}, {"measurement": "viability, T/C", "setting": "second compound 3.16 µM, first compound 0.0316 µM", "result": 25.6, "unit": "%"}, {"measurement": "viability, T/C", "setting": "second compound 3.16 µM, first compound 0.1 µM", "result": 18, "unit": "%"}, {"measurement": "viability, T/C", "setting": "second compound 3.16 µM, first compound 0.316 µM", "result": 6.64, "unit": "%"}, {"measurement": "viability, T/C", "setting": "second compound 3.16 µM, first compound 1 µM", "result": 5.12, "unit": "%"}, {"measurement": "viability, T/C", "setting": "second compound 10 µM, first compound 0.00316 µM", "result": 51, "unit": "%"}, {"measurement": "viability, T/C", "setting": "second compound 10 µM, first compound 0.01 µM", "result": 32.3, "unit": "%"}, {"measurement": "viability, T/C", "setting": "second compound 10 µM, first compound 0.0316 µM", "result": 35.1, "unit": "%"}, {"measurement": "viability, T/C", "setting": "second compound 10 µM, first compound 0.1 µM", "result": 17.8, "unit": "%"}, {"measurement": "viability, T/C", "setting": "second compound 10 µM, first compound 0.316 µM", "result": 8.94, "unit": "%"}, {"measurement": "viability, T/C", "setting": "second compound 10 µM, first compound 1 µM", "result": 2.94, "unit": "%"}]}]}
